Laboratory results from ChEMBL document CHEMBL1150200, “Apotirucallane Triterpenes from Dysoxylum roseum” (1991).
Converted amounts (≈) assume the structure as drawn.

Test system: KB
Experiment: Cytotoxicity against human KB cells
Format: functional
Details: read-out: ED50 (the source's name)

## CC(C)=CC1C[C@@H]([C@@H]2CC=C3[C@]4(C)C(=O)C[C@@H]5[C@](C)(C=CC(=O)[C@]5(C)CO)[C@H]4CC[C@]32C)CO1 (stereo partly specified) [DYSORONE E]
  EC50: 3.5 µg/mL (≈ 7.5 µM)
